From PubChem BioAssay (NCI) come the findings set out here.

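These data come from cells grown in 96-well plates and exposed to compound for 48 hours at five concentrations. The concentration for 50% growth inhibition is given as GI50. The concentration for full growth arrest is given as TGI.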

What all share (experiment): inhibition of tumour cell growth, NCI panel, 48 h
The test system of assay [1] is A549 NSCLC.
Assay [2] concerns MCF7 breast.
Assay [3] has as its system MDA-MB-231 breast.
In assay [4] the test system is NCI-H226 lung.
Assay [5] concerns NCI-H460 lung.
In assay [6] the test system is SK-OV-3 ovarian.
For assay [7], the system named is SNB-75 CNS.
The subject of assay [8] is SR leukemia.
For assay [9], the system named is SW-620 colon.
Assay [10] concerns UACC-257 melanoma.

`CC(C)[C@@H](CS(=O)(=O)C(C)C)N1C(=O)[C@@](C)(CC(=O)O)C[C@H](c2cccc(Cl)c2)[C@H]1c1ccc(Cl)cc1`: the GI50 in assay [1] was 0.464 µM; in assay [2], 0.282 µM; in [3], 18.3 µM; in [4], 0.193 µM; in assay [5], 0.388 µM; in assay [6], 19.2 µM. Also, the GI50 in assay [7] is 12.2 µM; in assay [8] it was 0.249 µM; in assay [9], 25.5 µM; in [10], 0.381 µM. Also, the TGI in assay [1] came to 19.8 µM; in assay [2], 3.52 µM; in assay [3], 39.2 µM; in assay [4] it was 0.422 µM; in assay [5], 15.1 µM; in [6] it was 73.2 µM. The TGI was over 85.8 µM in assay [7], over 40.7 µM in [8], over 100 µM in [9] and 6.82 µM in [10].

As for `COc1ccc(-c2[nH]ncc2-c2cc(OC)c(OC)c(OC)c2)cc1`, the GI50 is under 0.01 µM in [1]; under 0.01 µM in assay [2]; 0.0271 µM in assay [3]; under 0.0148 µM in assay [4]; under 0.01 µM in assay [5]; under 0.01 µM in assay [6]. Further, the GI50 in assay [7], in assay [8] and in assay [9] was under 0.01 µM in each case. The TGI in [1] is over 38 µM; in [2], 22.5 µM; in [4] it was 34.8 µM; in assay [5], 1.3 µM; in assay [6] it was 20.5 µM; in [7] it was 21 µM. Moreover, the TGI in assay [8] was 19.5 µM; in [9] it was over 41.5 µM; in assay [10] it was over 50.3 µM.

Regarding `CCc1nc(N)nc(N)c1-c1ccc(Cl)c(N=NN(C)C)c1`, the TGI was 99.5 µM in assay [1]; over 81.6 µM in assay [2]; over 100 µM in [3]; over 100 µM in assay [4]; 40.5 µM in [5]; over 100 µM in assay [6]. Moreover, the TGI in assay [7] is over 100 µM; in [8], 44.8 µM; in assay [9], over 100 µM; in assay [10] it was over 100 µM.

With `Oc1ccc(SCc2ccc(NCc3ccccc3)cc2)cc1`, the TGI in assay [1] was 56.7 µM; in assay [2] it was over 100 µM; in assay [3], over 100 µM; in [4] it was over 100 µM; in assay [5], over 100 µM; in [6], over 100 µM. Further, the TGI was 67.2 µM in assay [7], 47.6 µM in assay [8], over 100 µM in [9] and over 100 µM in [10].

Regarding `O=C1C(=O)c2c(nc3ncccn23)-c2ccccc21`, the GI50 in assay [1] was 0.23 µM; in assay [2] it was 0.179 µM; in assay [3], 0.215 µM; in [4] it was 0.493 µM; in [5] it was 0.227 µM; in assay [6] it was 1.08 µM. For the same compound, the GI50 in assay [7] was 0.378 µM; in assay [8], 0.315 µM; in [9] it was 0.214 µM; in assay [10], 0.175 µM. The TGI in assay [1] stood at 0.516 µM; in assay [2], 0.406 µM; in assay [3], 0.67 µM; in assay [4], 1.25 µM; in assay [5], 0.526 µM; in [6], 2.52 µM. For the same compound, the values for the TGI in assay [7], in [9] and in assay [10] were 0.793 µM, 0.461 µM and 0.339 µM, respectively.

As to `CCN1CCCCC(=N\O)/C(=N/O)CCCC1`, the TGI in [1], in assay [2], in [3], in assay [4], in assay [5] and in [6] was over 100 µM in each case. In addition, the TGI in [7], in assay [8], in assay [9] and in [10] was over 100 µM each time.

In the case of `COc1ccc2c(c1)C(=O)c1c-2n(CCCCl)c(=O)c2cc(N(C)C)ccc12`, the GI50 in assay [1] was over 100 µM; in [2], 28.6 µM; in assay [3] it was 21.8 µM; in [4] it was 54.7 µM; in [5], 73 µM; in assay [6], 36.2 µM. Moreover, the GI50 in [7] was 21.3 µM; in [8] it was 19.9 µM; in assay [9], over 100 µM; in [10], 43 µM. In addition, the TGI in assay [1] is over 100 µM; in assay [2], over 100 µM; in assay [3] it was 81 µM; in assay [4] it was over 100 µM; in assay [5], over 100 µM; in assay [6], over 100 µM. The TGI in [7] is 69.2 µM; in [8], over 100 µM; in assay [9] it was over 100 µM; in [10], over 100 µM.

For the compound `CC12CCC(O)CC1CCC1C2CCC2(C)C(C3=CC(=O)OC3)CCC12` (stereo not drawn), the GI50 is 21.8 µM in assay [1]; over 100 µM in assay [2]; 0.636 µM in [3]; over 33.6 µM in [4]; 0.493 µM in assay [5]; 21.8 µM in [6]. Further, the GI50 in [7] is 6.9 µM; in [8] it was 0.375 µM; in assay [9], over 100 µM; in assay [10], over 100 µM. Further, the TGI is over 100 µM in assay [1]; over 100 µM in assay [2]; 8.49 µM in assay [3]; over 100 µM in assay [4]; over 100 µM in assay [5]; over 61.5 µM in assay [6]. The TGI in assay [7] is 21.2 µM; in assay [8], over 100 µM; in [9], over 100 µM; in assay [10], over 100 µM.

For the compound `Cc1[nH]nc(C(=O)Nc2n[nH]c3ccccc23)c1[N+](=O)[O-]`, the GI50 was over 66.6 µM in [1]; 53.3 µM in [2]; over 100 µM in [3]; over 100 µM in assay [4]; over 85.1 µM in assay [5]; over 100 µM in [6]. The GI50 in assay [7] is 64.1 µM; in [9], over 100 µM; in assay [10], over 100 µM. Further, the TGI in [1], in assay [2], in assay [3], in [4], in assay [5] and in assay [6] was over 100 µM throughout. Besides, the TGI in assay [7] was over 100 µM; in assay [8], over 49.3 µM; in [9], over 100 µM; in [10], over 100 µM.

Turning to `CC(C)c1ccc(O)c(=O)cc1`, the GI50 in assay [1] is 4.69 µM; in [2], 5.08 µM; in assay [3], 13.4 µM; in [4], 66.7 µM; in assay [5], 2.66 µM; in assay [7], 75.4 µM. In addition, the GI50 is 4.18 µM in assay [8], 6.15 µM in assay [9] and 15.9 µM in assay [10]. For the same compound, the TGI in assay [1] is over 71.4 µM; in assay [4], 36.5 µM; in assay [5] it was 81.4 µM; in [6] it was over 100 µM; in assay [7], over 100 µM; in [8] it was over 100 µM. The TGI was over 100 µM in [9] and 31 µM in [10].

For the compound `COc1cccc2c1C(=O)c1c(O)c3c(c(O)c1C2=O)C[C@@](O)(/C(C)=N\O)C[C@@H]3OC1CC(N)C(O)C(C)O1` (stereo partly drawn), the TGI in assay [1] was determined as 6.22 µM; in assay [2], 9.97 µM; in assay [3], 7.17 µM; in [4] it was 7.52 µM; in [5], 8.16 µM; in [6], 11.7 µM. For the same compound, the TGI in assay [7] stood at 2.54 µM; in assay [8], 2.97 µM; in [9], 10.3 µM; in assay [10] it was 6.02 µM.

`CCC(C)CC(CC)NCCN1CCN(C(CC)CC(C)CC)C1=S` (stereo not drawn): the GI50 in assay [1] was 1.76 µM; in assay [2], 1.63 µM; in [3], 1.84 µM; in [4], 1.85 µM; in assay [5] it was 2.5 µM; in [6], 1.86 µM. Further, the GI50 in assay [7] was 1.49 µM; in assay [8], 1.87 µM; in [9] it was 1.89 µM; in [10], 1.65 µM. The TGI was found to be 3.37 µM in assay [1]; 2.98 µM in assay [2]; 3.55 µM in [3]; 4.02 µM in assay [4]; 4.1 µM in [5]; 3.36 µM in [6]. The TGI is 2.82 µM in [7], 4.12 µM in assay [8], 3.55 µM in assay [9] and 3.1 µM in assay [10].

With `O=C1C=C(Nc2nc(C(=O)O)cc(=O)[nH]2)c2ccccc2C1=O`, the TGI in assay [1], in assay [2], in assay [3], in assay [4], in assay [5] and in [6] was over 100 µM throughout. In addition, the TGI in assay [7], in assay [8], in [9] and in assay [10] was over 100 µM each time.

Turning to `COc1ccc(-c2nn(-c3cccc(NC(=O)Nc4cccc(C(F)(F)F)c4)c3)cc2-c2ccncc2)cc1Cl`, the GI50 in [1] is 1.83 µM; in assay [2], 1.91 µM; in assay [3], 2.18 µM; in assay [4], 2.14 µM; in assay [5], 1.76 µM; in assay [6] it was 3.58 µM. Besides, the GI50 in assay [7] is 1.51 µM; in [8] it was 1.31 µM; in [9], 3.37 µM; in assay [10] it was 2.28 µM. Also, the TGI in assay [1] was over 100 µM; in [2], over 100 µM; in [3], 19.8 µM; in [4], 9.43 µM; in [5], 11.5 µM; in [6] it was over 100 µM. Further, the TGI is 8.37 µM in assay [7], 4.84 µM in [8], over 100 µM in [9] and 10.8 µM in assay [10].

With `O=[N+]([O-])c1ccc2c(c1)S(=O)c1ccccc1-2` (stereo not drawn), the TGI in assay [1], in [2], in assay [3], in assay [4], in assay [5] and in [6] was over 100 µM each time. Besides, the TGI in assay [7], in assay [8], in [9] and in [10] was over 100 µM throughout.

For the compound `C=C1C(=O)O[C@H]2[C@H]1CC/C(COC(=O)C(=O)c1cn(C)c3ccc(OC)cc13)=C\CC[C@@]1(C)O[C@@H]21`, the GI50 in [1] was 7.61 µM; in assay [2], 2.8 µM; in assay [3], 4.39 µM; in assay [4] it was 5.45 µM; in assay [5], 7.2 µM; in assay [6], 13.6 µM. In addition, the GI50 in assay [7] was 6.69 µM; in assay [8], 2.34 µM; in assay [9], 3.53 µM; in assay [10], 4.82 µM. Moreover, the TGI in assay [1] stood at 14.2 µM; in assay [2] it was 16.4 µM; in assay [3], 10.6 µM; in assay [4] it was 10.1 µM; in assay [5], 14.4 µM; in [6], 29.3 µM. For the same compound, the TGI in assay [7] was 11.8 µM; in [8] it was 42.5 µM; in assay [9] it was 14.5 µM; in [10], 9.73 µM.

Consider `NCC(=O)CCC(=O)O`, for which the GI50 in [1], in [2], in [3], in [4], in assay [5] and in [6] was over 100 µM throughout. Further, the GI50 in assay [7], in [8], in assay [9] and in assay [10] was over 100 µM each time. The TGI in [1], in assay [2], in [3], in [4], in assay [5] and in assay [6] was over 100 µM in each case. For the same compound, the TGI in assay [7], in assay [8], in [9] and in assay [10] was over 100 µM each time.
